Results reported in patent US20250145585A1, “HETEROCYCLIC INHIBITORS OF IGF-1R FOR TREATMENT OF DISEASE” (HORIZON THERAPEUTICS IRELAND DAC, priority 2023, published 2025).
Where a name gives a salt, the structure may show the parent alone.

Biological target: T1, IGF-1R (Homo sapiens, UniProt P08069)
T1 construct: expressed in transfected cells
Assay: Example B-2: IGF-1R Assay (PathHunter cell lines, EC80 agonist challenge, chemiluminescent detection)
Type: cell-based
Details: PathHunter cells, compound 60 minutes at 37° C., EC80 agonist 3 hours; read-out: IC50, Biological Activity against IGF-1R (Table B2)
Protocol: PathHunter cell lines were expanded from freezer stocks according to standard procedures. Cells were seeded in a total volume of 20 μL into white walled, 384-well microplates and incubated for the appropriate time prior to testing.
Cells are pre-incubated with compound followed by EC80 agonist challenge as follows: • R. 1. Intermediate dilution of sample stocks was performed to generate 5× sample in assay buffer. • 2. 5 μL of 5× sample was added to cells and incubated at 37° C. for 60 minutes. Vehicle concentration was 1%. • 3. 5 IL of 6× EC80 agonist in assay buffer was added to the cells and incubated at room temperature for 3 hours.
Assay signal was generated through a single addition of 12.5 or 15 μL (50% v/v) of PathHunter Detection reagent cocktail for agonist and antagonist assays respectively, followed by a one hour incubation at room temperature. Microplates were read following signal generation with a PerkinElmer Envision™ instrument for chemilumine-scent signal detection.
Compound activity was analyzed using CBIS data analysis suite (ChemInnovation, CA). Percentage inhibition was calculated using the following formula: % Inhibition=100%×(1−(mean RLU of test sample−mean RLU of vehicle control)/(mean RLU of EC80 control−mean RLU of vehicle control)). The activity for representative examples of the invention is shown in the following table, wherein A: IC50≤500 nM; B: 500 nM<IC50≤2 μM; C: 2 μM<IC50≤10 μM; D: IC50>10 μM.

T1 sequence (P08069 31-1367): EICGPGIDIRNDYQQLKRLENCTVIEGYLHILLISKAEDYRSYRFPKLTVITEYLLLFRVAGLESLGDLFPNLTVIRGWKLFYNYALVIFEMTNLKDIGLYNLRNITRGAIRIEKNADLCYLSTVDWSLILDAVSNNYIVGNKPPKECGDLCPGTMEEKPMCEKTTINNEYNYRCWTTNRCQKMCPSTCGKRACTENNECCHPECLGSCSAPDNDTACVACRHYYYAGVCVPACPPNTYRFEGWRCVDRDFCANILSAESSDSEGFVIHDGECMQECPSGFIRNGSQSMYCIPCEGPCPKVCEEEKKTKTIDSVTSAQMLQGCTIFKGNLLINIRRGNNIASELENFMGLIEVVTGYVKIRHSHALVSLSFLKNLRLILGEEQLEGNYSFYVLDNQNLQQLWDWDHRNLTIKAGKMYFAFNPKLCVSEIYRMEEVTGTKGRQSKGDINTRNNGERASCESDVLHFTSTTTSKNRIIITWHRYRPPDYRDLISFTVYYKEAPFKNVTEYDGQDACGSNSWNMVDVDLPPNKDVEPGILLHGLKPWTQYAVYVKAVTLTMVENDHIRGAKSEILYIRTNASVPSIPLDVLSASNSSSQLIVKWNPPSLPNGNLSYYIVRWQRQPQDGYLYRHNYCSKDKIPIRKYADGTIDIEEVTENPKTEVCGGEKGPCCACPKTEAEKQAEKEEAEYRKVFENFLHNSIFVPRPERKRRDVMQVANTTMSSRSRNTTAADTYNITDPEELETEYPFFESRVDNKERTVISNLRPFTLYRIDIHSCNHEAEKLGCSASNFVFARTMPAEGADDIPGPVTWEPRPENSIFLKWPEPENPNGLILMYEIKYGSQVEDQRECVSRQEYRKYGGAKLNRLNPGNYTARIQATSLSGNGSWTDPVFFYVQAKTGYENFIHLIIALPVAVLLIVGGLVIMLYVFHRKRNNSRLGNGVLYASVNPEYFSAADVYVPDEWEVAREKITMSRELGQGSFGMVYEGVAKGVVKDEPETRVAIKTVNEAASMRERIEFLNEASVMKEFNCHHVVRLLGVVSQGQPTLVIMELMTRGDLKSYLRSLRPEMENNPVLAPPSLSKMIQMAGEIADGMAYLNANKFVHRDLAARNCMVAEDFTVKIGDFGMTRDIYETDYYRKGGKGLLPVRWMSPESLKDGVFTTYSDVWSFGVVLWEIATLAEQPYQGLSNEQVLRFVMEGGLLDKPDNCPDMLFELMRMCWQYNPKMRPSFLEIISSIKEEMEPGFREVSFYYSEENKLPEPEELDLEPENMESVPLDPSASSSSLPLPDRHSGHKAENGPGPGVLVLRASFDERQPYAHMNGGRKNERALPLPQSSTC

Compound	IC50
C[C@H]1COc2c(CN3C(=O)N(c4ccc(C5(C(F)(F)F)CC5)cc4)C(=O)C3(C)C)ccnc2N1 [Compound 26, (S)-5,5-dimethyl-1-((3-methyl-3,4-dihydro-2H-pyrido[3,2-b][1,4]oxazin-8-yl)methyl)-3-(4-(1-(trifluoromethyl)cyclopropyl)phenyl) imidazolidine-2,4-dione]	≤ 500 nM
C[C@@H]1CNc2nccc(CN3C(=O)N(c4ccc(C5(C(F)(F)F)CC5)cc4)C(=O)C3(C)C)c2O1 [Compound 27, (R)-5,5-dimethyl-1-((2-methyl-3,4-dihydro-2H-pyrido[3,2-b][1,4]oxazin-8-yl)methyl)-3-(4-(1-(trifluoromethyl)cyclopropyl)phenyl) imidazolidine-2,4-dione]	≤ 500 nM
C[C@H]1CNc2nccc(CN3C(=O)N(c4ccc(C5(C(F)(F)F)CC5)cc4)C(=O)C3(C)C)c2O1 [Compound 28, (S)-5,5-dimethyl-1-((2-methyl-3,4-dihydro-2H-pyrido[3,2-b][1,4]oxazin-8-yl)methyl)-3-(4-(1-(trifluoromethyl)cyclopropyl)phenyl) imidazolidine-2,4-dione]	≤ 500 nM
CC(C)(C#N)c1ccc(N2C(=O)N(Cc3ccnc4c3CC(=O)N4)C(C)(C)C2=O)cc1 [Compound 29, 2-(4-(4,4-dimethyl-2,5-dioxo-3-((2-oxo-2,3-dihydro-1H-pyrrolo[2,3-b]pyridin-4-yl)methyl)imidazolidin-1-yl)phenyl)-2-methylpropanenitrile]	≤ 500 nM
CC1(C)C(=O)N(c2ccc(C3(C(F)(F)F)CCC3)cc2)C(=O)N1Cc1ccnc2c1CC(=O)N2 [Compound 30, 5,5-dimethyl-1-((2-oxo-2,3-dihydro-1H-pyrrolo[2,3-b]pyridin-4-yl)methyl)-3-(4-(1-(trifluoromethyl)cyclobutyl)phenyl)imidazolidine-2,4-dione hydrochloride]	≤ 500 nM
CC1C(=O)Nc2nccc(CN3C(=O)N(c4ccc(C5(C(F)(F)F)CC5)cc4)C(=O)C3(C)C)c21 (centres unmarked) [Compound 31, 5,5-dimethyl-1-((3-methyl-2-oxo-2,3-dihydro-1H-pyrrolo[2,3-b]pyridin-4-yl)methyl)-3-(4-(1-(trifluoromethyl)cyclopropyl)phenyl) imidazolidine-2,4-dione]	≤ 500 nM
CC1(C)C(=O)N(c2ccc(C34CC(C3)C4)cc2)C(=O)N1Cc1ccnc2c1CC(=O)N2 [Compound 32, 3-(4-(bicyclo[1.1.1]pentan-1-yl)phenyl)-5,5-dimethyl-1-((2-oxo-2,3-dihydro-1H-pyrrolo[2,3-b]pyridin-4-yl)methyl)imidazolidine-2,4-dione]	≤ 500 nM
CC1(C)C(=O)N(c2ccc(C3(C(F)(F)F)CC3)cc2)C(=O)N1Cc1ccnc2c1CCN2 [Compound 33, 1-((2,3-dihydro-1H-pyrrolo[2,3-b]pyridin-4-yl)methyl)-5,5-dimethyl-3-(4-(1-(trifluoromethyl)cyclopropyl)phenyl) imidazolidine-2,4-dione]	≤ 500 nM
CC1Cc2c(CN3C(=O)N(c4ccc(C5(C(F)(F)F)CC5)cc4)C(=O)C3(C)C)ccnc2N1 (centres unmarked) [Compound 34, 5,5-dimethyl-1-((2-methyl-2,3-dihydro-1H-pyrrolo[2,3-b]pyridin-4-yl)methyl)-3-(4-(1-(trifluoromethyl)cyclopropyl)phenyl) imidazolidine-2,4-dione]	≤ 500 nM
CC1(C)COc2cc(N3C(=O)N(Cc4ccnc5c4CC(=O)N5)C(C)(C)C3=O)ccc21 [Compound 35, 3-(3,3-dimethyl-2,3-dihydrobenzofuran-6-yl)-5,5-dimethyl-1-((2-oxo-2,3-dihydro-1H-pyrrolo[2,3-b]pyridin-4-yl)methyl)imidazolidine-2,4-dione]	≤ 500 nM
CC(C)(C)c1ccc(N2C(=O)N(Cc3ccnc4c3CC(=O)N4)C(C)(C)C2=O)cc1 [Compound 36, 3-(4-(tert-butyl)phenyl)-5,5-dimethyl-1-((2-oxo-2,3-dihydro-1H-pyrrolo[2,3-b]pyridin-4-yl)methyl)imidazolidine-2,4-dione]	≤ 500 nM
